{"source": "patent US9981983B2", "about": "“Thienopyranones as kinase inhibitors” (SignalRx Pharmaceuticals, Inc., priority 2008, dated 2018)", "key": {"[1]": {"system": "786-O (Renal)", "test": "Cell proliferation MTS assay, 786-O", "type": "cell-based", "settings": "Homo sapiens, 786-0, 72 hours", "protocol": "(§1) All cell lines were obtained from ATCC and cultured and plated according to ATCC recommendations. Cells were cultured in complete culture media containing 10% heat-inactivated fetal bovine serum (FBS, Mediatech, Inc.). For adherent cell lines, once cells reached 70% confluency, they were trypsinized and resuspended in phenol red free RPMI media (Mediatech, Inc.) plus 10% heat-inactivated FBS (assay buffer) and 100 μL aliquots were plated into each well of 96-well microtiter plates at a final density of 1,000-2,000 cells/well. Cells were incubated overnight at 37° C. in 5% CO2, and treated with test compounds on the next day. For suspension cell lines, cells were resuspended in assay buffer, plated into 96-well microtiter plates at a density of 10^4-10^5 cells/well/100 μL, and treatment was started on the same day. Cells were treated with vehicle (DMSO) and test compounds for 72 hours at concentration of 100, 70, 40, 20, 10, 5, 2.5, 1.25, 0.5 and 0.2 μM in four replicates at 37° C. in 5% CO2."}, "[2]": {"system": "786-0 renal cell carcinoma xenograft", "test": "786-0 renal cell carcinoma xenograft mouse model", "type": "in vivo, nude mice", "settings": "ip, 3×/wk for 4 weeks", "protocol": "To determine if Cpd 9 has anti-tumor effects, an in vivo study was conducted in a 786-0 renal cell carcinoma xenograft model, 786-0 cells (2×10^6) were inoculated subcutaneously into nude mice in the flank area and tumor growth was monitored with calipers via external measurements. Tumor volume was calculated using the formula volume=(length×width^2)/2. When the average tumor volume reached 400 mm^3, mice were randomly divided into 2 groups and treated with either DMSO (control) or Cpd 9 (25 mg/kg, ip) three times weekly (M, W, F) for two weeks.\nTo determine if Cpd 28 has anti-tumor effects, an in vivo study was conducted in a 786-0 renal cell carcinoma xenograft model, 786-0 cells (2×10^6) were inoculated subcutaneously into nude mice in the flank area and tumor growth was monitored with calipers via external measurements. Tumor volume was calculated using the formula volume=(length×width^2)/2. Treatment was started when tumors reached an average volume of 300 mm^3. […] DMSO was used as control since this was the vehicle the compounds were dissolved in. Tumor size was monitored twice weekly and body weight was monitored once weekly. Means and standard deviations were calculated and the Student t test method was used for statistical comparisons."}, "[3]": {"system": "MCF7 breast cancer cells", "test": "Mammosphere cancer stem cell inhibition assay", "type": "cell-based", "settings": "first experiment; for number of mammospheres: control 38±4", "protocol": "A mammosphere cancer stem cell inhibition assay was set up using literature methods (T. M. Phillips et al. J. Natl. Cancer I. 2006, 98, 1777-1785, “Mammalian target of rapamycin contributes to the acquired apoptotic resistance of human mesothelioma multicellular spheroids”) using a subset of MCF7 breast cancer cells that posses the ability to evade anchorage independent apoptosis. Commercially available MCF7 breast cancer cells were cultured in MEM supplemented with 0.01 mg/mL of bovine insulin and 10% FBS at 37° C. in humidified atmosphere (5% CO2). Floating cells in the 2-day cultures were collected, washed, and resuspended in DMEM-F12 (50:50) supplemented with 0.4% BSA, 5 μg/mL bovine insulin, 20 ng/mL bFGF, and 10 ng/mL EGF. Cells were then passed through a […] sieve to remove any cell clusters and adjusted to a density of 10,000 cells/mL. Approximately 500 cells were plated in quadruplicate in a sterile poly-HEMA-treated 96-well plate. Cells were then treated with either control or test solutions consisting of the kinase inhibitor Lapatinib (1 μM), Cpd 28 (1 or 10 μM), Cpd 55 (1 or 10 μM), The numbers of mammospheres (clusters of cells numbering more than 4 or 5 per cluster) were then counted after 5-7 days."}, "[4]": {"system": "786-0 cells", "test": "Apoptosis in 786-0 cells (Annexin V / PI flow cytometry)", "type": "cell-based", "design": "unit not given here", "settings": "overnight", "protocol": "In order to evaluate the mechanism of action of these compounds, 786-0 cell cultures were treated with Cpd 9 or Cpd 28 at different concentrations overnight and then analyzed for apoptotic induction. The cells were stained using standard methods with Annexin V and/or Propedium iodine (PI) at room temperature for 15 minutes. Apoptotic cells at early (Annexin V positive) or late stage (both Annexin V and PI positive) were detected by Flow Cytometry."}, "[5]": {"system": "786-O cells", "test": "Cellular proliferation (Example B method), 786-O", "type": "cell-based", "settings": "Homo sapiens, 786-0, renal cell carcinoma", "protocol": "PC3 cells were obtained from the American Type Culture Collection (ATCC, Manassas, Va., Cat.# CRL-1435) Two thousand cells from the prostate cancer line PC3 were placed in 50 μL of complete RPMI 1640 media (Invitrogen, Carlsbad, Calif., Cat.#22400-105) with 10% fetal bovine serum (Invitrogen, Carlsbad, Calif., Cat.#10438-026) into each well of 96 well cell culture plates in a hexaplicate sampling pattern. A 50 μL aliquot of test compound (prepared from stock test compounds in DMSO diluted into media) was added to the appropriate well such that the final concentrations of test compound were 200, 40, 8, 1.6, 0.32, 0.064, 0.0128, 0.00256, and 0 μM and the final DMSO concentration was less than or equal to 0.2%.\nThe plates were incubated for 72 hours 37° C. in an atmosphere of 5% CO2. At the end of this time a 10 μL aliquot of WST solution (Roche Applied Science, Mannheim, Germany) was added into each of the wells. Cells were exposed to the WST solution for 4 hours. A SpectraMax Plus spectrophotometric plate reader (Molecular Devices, Sunnydale, Calif.) was then used to measure the optical density at 450 nm (OD450 nm). Sigmoidal curves were drawn for the dose responses and IC50 values were calculated using the software package GraphPad Prism4 (GraphPad Software, Inc., San Diego, Calif.).\nSeveral other cancer cell lines were obtained from ATCC and grown according to their recommendations and treated with test compounds to obtain the concentration of test compound that inhibited the cellular proliferation by 50% of no-treatment controls. These IC50 values (μM) are listed in Table 7 below obtained by the methods described in Example B: […]"}, "[6]": {"system": "HL60 (AML)", "test": "Cell proliferation MTS assay, HL60", "type": "cell-based", "settings": "Homo sapiens, HL-60, 72 hours", "protocol": "as §1"}}}
{"smiles": "O=c1cc(N2CCOCC2)oc2c(-c3ccc4c(c3)OCCO4)csc12", "note": "[Compound 28, 3-(2,3-dihydrobenzo[b][1,4]dioxin-6-yl)-5-morpholino-7H-thieno[3,2-b]pyran-7-one]", "values": [{"measurement": "IC50", "setting": "[1]", "result": 2.82, "unit": "µM"}, {"measurement": "tumor growth inhibition compared to control", "setting": "[2]; 25 mg/kg", "result": 70, "unit": "%"}, {"measurement": "body weight change or other abnormalities", "setting": "[2]; 50 mg/kg", "result": "no significant body weight change or other abnormalities noted"}, {"measurement": "tumor growth inhibition compared to control", "setting": "[2]; 50 mg/kg", "result": 81, "unit": "%"}, {"measurement": "inhibition of mammosphere production versus control", "setting": "[3]; 1 μM", "result": "approximately 60%"}, {"measurement": "number of mammospheres", "setting": "[3]; 1 μM", "result": "15±2", "unit": "mammospheres"}, {"measurement": "inhibition of mammosphere production versus control", "setting": "[3]; 10 μM", "result": "approximately 88%"}, {"measurement": "number of mammospheres", "setting": "[3]; 10 μM", "result": "5±1", "unit": "mammospheres"}, {"measurement": "Early stage apoptotic cells", "setting": "[4]; 5 μM", "result": 10.4}, {"measurement": "Late stage apoptotic cells", "setting": "[4]; 5 μM", "result": 11.56}, {"measurement": "Total Apoptotic Cells", "setting": "[4]; 5 μM", "result": 21.96}, {"measurement": "Early stage apoptotic cells", "setting": "[4]; 10 μM", "result": 16.45}, {"measurement": "Late stage apoptotic cells", "setting": "[4]; 10 μM", "result": 15.43}, {"measurement": "Total Apoptotic Cells", "setting": "[4]; 10 μM", "result": 31.88}, {"measurement": "IC50", "setting": "[5]", "result": 3.32, "unit": "µM"}, {"measurement": "IC50", "setting": "[6]", "result": 3.06, "unit": "µM"}]}
